PubChem BioAssay (NCI)
Several values for one entry are separate records, joined by “and”; a condition that tells them apart may be missing. Identical values can stand only once.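 Briefly, cells in 96-well plates were exposed to five compound concentrations for 48 h, and endpoints were estimated by linear interpolation. GI50 = concentration required for 50% inhibition of growth. TGI: total growth inhibition.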

Tests used:
Assay in all cases: inhibition of tumour cell growth, NCI panel, 48 h
MDA-N = tested on: MDA-N
SNB-19 CNS = tested on: SNB-19 CNS
T-47D breast = tested on: T-47D breast
MDA-MB-435 = tested on: MDA-MB-435
EKVX NSCLC = tested on: EKVX NSCLC
NCI-H460 lung = tested on: NCI-H460 lung
HOP-92 NSCLC = tested on: HOP-92 NSCLC
OVCAR-8 ovarian = tested on: OVCAR-8 ovarian
SN12C renal = tested on: SN12C renal
MDA-MB-231 breast = tested on: MDA-MB-231 breast
ACHN renal = tested on: ACHN renal
A498 renal = tested on: A498 renal
IGROV1 ovarian = tested on: IGROV1 ovarian
786-0 renal = tested on: 786-0 renal
TK-10 renal = tested on: TK-10 renal
CCRF-CEM leukemia = tested on: CCRF-CEM leukemia
UO-31 renal = tested on: UO-31 renal
U251 CNS = tested on: U251 CNS
M14 melanoma = tested on: M14 melanoma
MALME-3M melanoma = tested on: MALME-3M melanoma
NCI-H522 lung = tested on: NCI-H522 lung
HCT-15 colon = tested on: HCT-15 colon
PC-3 prostate = tested on: PC-3 prostate
K-562 leukemia = tested on: K-562 leukemia
HCC-2998 colon = tested on: HCC-2998 colon
SF-268 CNS = tested on: SF-268 CNS
UACC-257 melanoma = tested on: UACC-257 melanoma
HOP-62 NSCLC = tested on: HOP-62 NSCLC
NCI-H23 lung = tested on: NCI-H23 lung
SF-295 CNS = tested on: SF-295 CNS
HT29 colon = tested on: HT29 colon
SF-539 CNS = tested on: SF-539 CNS
UACC-62 melanoma = tested on: UACC-62 melanoma
SK-OV-3 ovarian = tested on: SK-OV-3 ovarian
CAKI-1 renal = tested on: CAKI-1 renal
SNB-75 CNS = tested on: SNB-75 CNS
OVCAR-5 ovarian = tested on: OVCAR-5 ovarian
MOLT-4 leukemia = tested on: MOLT-4 leukemia
LOX IMVI melanoma = tested on: LOX IMVI melanoma
SK-MEL-28 melanoma = tested on: SK-MEL-28 melanoma
OVCAR-4 ovarian = tested on: OVCAR-4 ovarian
BT-549 breast = tested on: BT-549 breast
OVCAR-3 ovarian = tested on: OVCAR-3 ovarian
NCI/ADR-RES ovarian = tested on: NCI/ADR-RES ovarian
SR leukemia = tested on: SR leukemia
RPMI-8226 leukemia = tested on: RPMI-8226 leukemia
A549 NSCLC = tested on: A549 NSCLC
DU-145 prostate = tested on: DU-145 prostate
SW-620 colon = tested on: SW-620 colon
SK-MEL-5 melanoma = tested on: SK-MEL-5 melanoma
COLO 205 colon = tested on: COLO 205 colon
KM12 colon = tested on: KM12 colon
MCF7 breast = tested on: MCF7 breast
HS 578T breast = tested on: HS 578T breast
HL-60(TB) leukemia = tested on: HL-60(TB) leukemia
SK-MEL-2 melanoma = tested on: SK-MEL-2 melanoma
RXF 393 renal = tested on: RXF 393 renal
HCT-116 colon = tested on: HCT-116 colon
NCI-H226 lung = tested on: NCI-H226 lung

For `[NH-]c1ncnc2c1N=C[N+]2=CC=CCO`, the TGI (MDA-N) was > 100 µM.
Molecule `CCC(C)C1NC(=O)C(NC(=O)C(CC(C)C)N(C)C(=O)[C@@H]2C=CCN2C(=O)[C@H](C)O)C(C)OC(=O)[C@H](Cc2ccc(OC)cc2)N(C)C(=O)[C@@H]2CCCN2C(=O)[C@H](CC(C)C)NC(=O)C(C)C(=O)[C@H](C(C)C)OC(=O)CC1O` (some centres not stated) has a TGI (SNB-19 CNS) of 0.0556 µM, a TGI (T-47D breast) of 0.0109 µM and a TGI (MDA-MB-435) of 0.0132 µM. The TGI (EKVX NSCLC) was 0.0345 µM, the TGI (NCI-H460 lung) was 0.0125 µM and 0.0227 µM and the TGI (HOP-92 NSCLC) was 0.0382 µM. For the same molecule, the TGI (OVCAR-8 ovarian) was 0.0386 µM, the TGI (SN12C renal) was 0.015 µM and the TGI (MDA-MB-231 breast) was 0.0351 µM and 0.0943 µM. For the same molecule, the TGI (ACHN renal) was 0.0513 µM, the TGI (A498 renal) was 0.0471 µM and 0.0481 µM and the TGI (IGROV1 ovarian) was 0.0193 µM. The TGI (786-0 renal) was 0.0135 µM and 0.0105 µM, the TGI (TK-10 renal) was 0.0682 µM and 0.0246 µM and the TGI (CCRF-CEM leukemia) was 0.0114 µM. For the same molecule, the TGI (UO-31 renal) was 0.0626 µM and 0.406 µM, the TGI (U251 CNS) was 0.018 µM and the TGI (M14 melanoma) was 0.0123 µM. It also gave a TGI (MALME-3M melanoma) of 0.0134 µM, a TGI (NCI-H522 lung) of 0.0108 µM and a TGI (HCT-15 colon) of 0.111 µM. For the same molecule, the TGI (PC-3 prostate) was 0.0271 µM, the TGI (K-562 leukemia) was 0.0116 µM and 0.0104 µM and the TGI (HCC-2998 colon) was 0.0147 µM. The TGI (SF-268 CNS) was 0.0109 µM and 0.0186 µM, the TGI (UACC-257 melanoma) was 0.0156 µM and 0.0134 µM and the TGI (HOP-62 NSCLC) was 0.0177 µM. It also gave a TGI (NCI-H23 lung) of 0.00917 µM, a TGI (MDA-N) of 0.0188 µM and a TGI (SF-295 CNS) of 0.02 µM. For the same molecule, the TGI (HT29 colon) was 0.0335 µM and 0.0155 µM, the TGI (SF-539 CNS) was 0.00467 µM and the TGI (UACC-62 melanoma) was 0.005 µM. It also gave a TGI (SK-OV-3 ovarian) of 0.0317 µM, a TGI (CAKI-1 renal) of 0.16 µM and a TGI (SNB-75 CNS) of 0.0126 µM. The TGI (OVCAR-5 ovarian) was 0.0738 µM, the TGI (MOLT-4 leukemia) was 0.00805 µM and the TGI (LOX IMVI melanoma) was 0.0105 µM. The TGI (SK-MEL-28 melanoma) was 0.00567 µM, the TGI (OVCAR-4 ovarian) was 0.00881 µM and 0.0112 µM and the TGI (BT-549 breast) was 0.0153 µM. The TGI (OVCAR-3 ovarian) was 0.0282 µM and 0.0112 µM, the GI50 (NCI/ADR-RES ovarian) was 0.0594 µM and the TGI (NCI/ADR-RES ovarian) was 11.7 µM. For the same molecule, the TGI (SR leukemia) was > 100 µM, the TGI (RPMI-8226 leukemia) was 0.0201 µM and the TGI (A549 NSCLC) was 0.0131 µM. For the same molecule, the TGI (DU-145 prostate) was 0.0317 µM, the TGI (SW-620 colon) was 0.0545 µM and the TGI (SK-MEL-5 melanoma) was 0.0102 µM.
`O=Cc1cn(Cc2ccccc2)c2ccccc12` was tested, and the GI50 (SNB-19 CNS) was 75.4 µM, the TGI (SNB-19 CNS) was > 100 µM and the GI50 (COLO 205 colon) was 0.438 µM. The TGI (COLO 205 colon) was > 32.4 µM, the GI50 (KM12 colon) was 53.3 µM and the TGI (KM12 colon) was > 100 µM. The GI50 (T-47D breast) was 3.12 µM, the TGI (T-47D breast) was > 100 µM and the GI50 (MDA-MB-435) was 46.2 µM. The TGI (MDA-MB-435) was > 100 µM, the GI50 (MCF7 breast) was 30.7 µM and the TGI (MCF7 breast) was > 100 µM. For the same molecule, the GI50 (HS 578T breast) was 30.5 µM, the TGI (HS 578T breast) was > 100 µM and the GI50 (EKVX NSCLC) was 22.8 µM. For the same molecule, the TGI (EKVX NSCLC) was > 81 µM, the GI50 (NCI-H460 lung) was 0.279 µM and the TGI (NCI-H460 lung) was > 100 µM. The GI50 (HOP-92 NSCLC) was 20.6 µM, the TGI (HOP-92 NSCLC) was > 100 µM and the GI50 (OVCAR-8 ovarian) was 43.5 µM. For the same molecule, the TGI (OVCAR-8 ovarian) was > 100 µM, the GI50 (SN12C renal) was 49.2 µM and the TGI (SN12C renal) was > 100 µM. The GI50 (HL-60(TB) leukemia) was 16.9 µM, the TGI (HL-60(TB) leukemia) was > 80.5 µM and the GI50 (MDA-MB-231 breast) was 38.7 µM. For the same molecule, the TGI (MDA-MB-231 breast) was > 100 µM, the GI50 (ACHN renal) was 33.6 µM and the TGI (ACHN renal) was > 100 µM. The GI50 (A498 renal) was 0.163 µM, the TGI (A498 renal) was 0.389 µM and the GI50 (IGROV1 ovarian) was 0.5 µM. The TGI (IGROV1 ovarian) was > 38.1 µM, the GI50 (786-0 renal) was 33.1 µM and the TGI (786-0 renal) was 97.8 µM. The GI50 (TK-10 renal) was 0.946 µM, the TGI (TK-10 renal) was 9 µM and the GI50 (SK-MEL-2 melanoma) was 8.62 µM. The TGI (SK-MEL-2 melanoma) was 60.6 µM, the GI50 (CCRF-CEM leukemia) was 41.8 µM and the TGI (CCRF-CEM leukemia) was > 100 µM. The GI50 (UO-31 renal) was 18.2 µM, the TGI (UO-31 renal) was > 100 µM and the GI50 (U251 CNS) was 31.5 µM. The TGI (U251 CNS) was > 100 µM, the GI50 (M14 melanoma) was 43.4 µM and the TGI (M14 melanoma) was > 100 µM. For the same molecule, the GI50 (RXF 393 renal) was > 47.7 µM, the TGI (RXF 393 renal) was 97.7 µM and the GI50 (MALME-3M melanoma) was > 56 µM. For the same molecule, the TGI (MALME-3M melanoma) was > 100 µM, the GI50 (HCT-116 colon) was 13.7 µM and the TGI (HCT-116 colon) was > 100 µM. The GI50 (NCI-H522 lung) was > 100 µM, the TGI (NCI-H522 lung) was > 100 µM and the GI50 (HCT-15 colon) was 52.4 µM. For the same molecule, the TGI (HCT-15 colon) was > 100 µM, the GI50 (NCI-H226 lung) was 0.916 µM and the TGI (NCI-H226 lung) was 3.72 µM. The GI50 (PC-3 prostate) was 35.7 µM, the TGI (PC-3 prostate) was > 100 µM and the GI50 (K-562 leukemia) was 18.7 µM. For the same molecule, the TGI (K-562 leukemia) was > 100 µM, the GI50 (HCC-2998 colon) was 21.9 µM and the TGI (HCC-2998 colon) was > 100 µM. The GI50 (SF-268 CNS) was 52.1 µM, the TGI (SF-268 CNS) was > 100 µM and the GI50 (UACC-257 melanoma) was 3.44 µM. For the same molecule, the TGI (UACC-257 melanoma) was 19.5 µM, the GI50 (HOP-62 NSCLC) was 21.8 µM and the TGI (HOP-62 NSCLC) was > 100 µM. For the same molecule, the GI50 (NCI-H23 lung) was 37.9 µM, the TGI (NCI-H23 lung) was > 100 µM and the GI50 (SF-295 CNS) was 5.15 µM. For the same molecule, the TGI (SF-295 CNS) was > 63.4 µM, the GI50 (HT29 colon) was 61.5 µM and the TGI (HT29 colon) was > 100 µM. The GI50 (SF-539 CNS) was 43.7 µM, the TGI (SF-539 CNS) was > 100 µM and the GI50 (UACC-62 melanoma) was 2.31 µM. The TGI (UACC-62 melanoma) was 19.4 µM, the GI50 (SK-OV-3 ovarian) was 4.04 µM and the TGI (SK-OV-3 ovarian) was > 100 µM. The GI50 (CAKI-1 renal) was < 0.0426 µM, the TGI (CAKI-1 renal) was 0.547 µM and the GI50 (SNB-75 CNS) was 27.1 µM. For the same molecule, the TGI (SNB-75 CNS) was > 100 µM, the GI50 (OVCAR-5 ovarian) was 0.238 µM and the GI50 (MOLT-4 leukemia) was 21.1 µM. The TGI (MOLT-4 leukemia) was > 100 µM, the GI50 (LOX IMVI melanoma) was 24.4 µM and the TGI (LOX IMVI melanoma) was > 100 µM. For the same molecule, the GI50 (SK-MEL-28 melanoma) was > 57.8 µM, the TGI (SK-MEL-28 melanoma) was > 100 µM and the GI50 (OVCAR-4 ovarian) was 5.83 µM. The TGI (OVCAR-4 ovarian) was > 100 µM, the GI50 (BT-549 breast) was 29.2 µM and the TGI (BT-549 breast) was > 96.8 µM. The GI50 (OVCAR-3 ovarian) was 21 µM, the TGI (OVCAR-3 ovarian) was > 67.5 µM and the GI50 (NCI/ADR-RES ovarian) was 35.7 µM. The TGI (NCI/ADR-RES ovarian) was > 100 µM, the GI50 (SR leukemia) was > 35.4 µM and the TGI (SR leukemia) was > 82 µM. The GI50 (RPMI-8226 leukemia) was 6.39 µM, the TGI (RPMI-8226 leukemia) was 47.7 µM and the GI50 (A549 NSCLC) was 35 µM. The TGI (A549 NSCLC) was > 100 µM, the GI50 (DU-145 prostate) was > 68.2 µM and the TGI (DU-145 prostate) was > 100 µM. The GI50 (SW-620 colon) was 45.6 µM, the TGI (SW-620 colon) was > 100 µM and the GI50 (SK-MEL-5 melanoma) was 18.7 µM. For the same molecule, the TGI (SK-MEL-5 melanoma) was > 70 µM.
